Data: ChEMBL document CHEMBL5104192, “Late-Stage Functionalization with Cysteine Staples Generates Potent and Selective Melanocortin Receptor-1 Agonists” (J Med Chem, 2022)
*1 amine or outer side, *2 acyl side, *3 side chain or, on linkers, in order; H or OH if unused. Where a SMILES comes first, the peptide text is derived from it. Bridges are numbered along the chain shown (N, C = ends). [ ]: non-standard residue; d: D form. X9 = O=C(NCCOCCOCCOCCNC(=O)OCC1C2CCc3nnn(CC(=O)N4CCCC[C@H]4C4(O)CN(C(=O)c5ccc(F)c(F)c5Nc5ccc(I)cc5F)C4)c3CCC21)OCC1C2CCc3c([*:1])nnc([*:2])c3CCC21; X8 = NCCNC(=O)OCC1C2CCc3c([*:1])nnc([*:2])c3CCC21; mXylylene = c1cc(C[*:1])cc(C[*:2])c1; oXylylene = c1ccc(C[*:2])c(C[*:1])c1; pXylylene = c1cc(C[*:2])ccc1C[*:1]; NMeR = CN[C@@H](CCCNC(=N)N)C(=O)O; Nle = CCCC[C@H](N)C(=O)O

Experiments:
[1] = biological target: T1, Melanocyte-stimulating hormone receptor (Homo sapiens, UniProt Q01726); test: Displacement of [125I]-NDP-alpha-MSH from human MC1R expressed in HEK2936E cell membrane measured after 16 to 23 hrs by 1450 microbeta trilux scintillation proximity assay; format: cell membranes
T1 sequence (Q01726 whole entry): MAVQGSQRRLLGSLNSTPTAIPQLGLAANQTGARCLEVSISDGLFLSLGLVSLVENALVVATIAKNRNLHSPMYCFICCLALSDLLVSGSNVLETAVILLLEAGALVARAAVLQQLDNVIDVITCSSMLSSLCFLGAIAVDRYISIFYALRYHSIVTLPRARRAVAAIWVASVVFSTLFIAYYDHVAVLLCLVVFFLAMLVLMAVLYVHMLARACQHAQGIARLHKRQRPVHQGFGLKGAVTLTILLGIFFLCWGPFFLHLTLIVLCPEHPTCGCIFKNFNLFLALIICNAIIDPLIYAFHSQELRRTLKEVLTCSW

Melanocortin receptor 3 [2] = biological target: T2, Melanocortin receptor 3 (Homo sapiens, UniProt P41968); test: Displacement of [125I]-NDP-alpha-MSH from human MC3R expressed in HEK2936E cell membrane measured after 16 to 23 hrs by 1450 microbeta trilux scintillation proximity assay; format: cell membranes
T2 sequence (P41968 whole entry): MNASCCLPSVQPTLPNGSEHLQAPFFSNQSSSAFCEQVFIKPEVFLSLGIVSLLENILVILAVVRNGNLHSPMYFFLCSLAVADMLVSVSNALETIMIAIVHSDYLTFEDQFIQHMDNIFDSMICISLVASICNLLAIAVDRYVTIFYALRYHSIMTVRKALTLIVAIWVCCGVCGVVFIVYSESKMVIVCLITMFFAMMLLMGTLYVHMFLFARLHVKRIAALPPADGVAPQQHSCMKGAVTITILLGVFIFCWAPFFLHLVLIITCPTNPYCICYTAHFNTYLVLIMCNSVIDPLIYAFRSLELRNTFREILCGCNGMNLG

Melanocortin receptor 4 [3] = biological target: T3, Melanocortin receptor 4 (Homo sapiens, UniProt P32245); test: Displacement of [125I]-NDP-alpha-MSH from human MC4R expressed in HEK2936E cell membrane measured after 16 to 23 hrs by 1450 microbeta trilux scintillation proximity assay; format: cell membranes
T3 sequence (P32245 whole entry): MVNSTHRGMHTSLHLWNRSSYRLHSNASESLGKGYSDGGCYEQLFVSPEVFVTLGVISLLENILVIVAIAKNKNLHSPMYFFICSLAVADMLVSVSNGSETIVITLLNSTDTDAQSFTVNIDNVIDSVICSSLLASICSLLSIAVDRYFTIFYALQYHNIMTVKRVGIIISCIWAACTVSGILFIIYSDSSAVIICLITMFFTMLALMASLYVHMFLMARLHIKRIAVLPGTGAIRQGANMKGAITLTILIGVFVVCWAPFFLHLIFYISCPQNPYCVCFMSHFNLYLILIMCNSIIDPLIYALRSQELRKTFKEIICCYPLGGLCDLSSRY

Homo sapiens [4] = organism: Homo sapiens; test: Selectivity ratio of Ki for human MC3R to Ki for human MC1R
Homo sapiens [5] = organism: Homo sapiens; test: Selectivity ratio of Ki for human MC4R to Ki for human MC1R
[6] = biological target: T1, Melanocyte-stimulating hormone receptor; test: Agonist activity at human MC1R expressed in HEK2936E cells assessed as cAMP production in presence of IBMX by time resolved fluorescence assay; format: functional, cell-based; settings: read-out: pEC50 (converted)
Melanocortin receptor 3 [7] = biological target: T2, Melanocortin receptor 3; test: Agonist activity at human MC3R expressed in HEK2936E cells assessed as cAMP production in presence of IBMX by time resolved fluorescence assay; format: functional, cell-based
Melanocortin receptor 4 [8] = biological target: T3, Melanocortin receptor 4; test: Agonist activity at human MC4R expressed in HEK2936E cells assessed as cAMP production in presence of IBMX by time resolved fluorescence assay; format: functional, cell-based
Homo sapiens [9] = organism: Homo sapiens; test: Selectivity ratio of EC50 for human MC3R to EC50 for human MC1R
Homo sapiens [10] = organism: Homo sapiens; test: Selectivity ratio of EC50 for human MC4R to EC50 for human MC1R

Compound | Ki [1] | Ki (Melanocortin receptor 3 [2]) | Ki (Melanocortin receptor 4 [3]) | Ratio Ki (Homo sapiens [4]) | Ratio Ki (Homo sapiens [5]) | EC50 [6] | EC50 (Melanocortin receptor 3 [7]) | EC50 (Melanocortin receptor 4 [8]) | Ratio EC50 (Homo sapiens [9]) | Ratio EC50 (Homo sapiens [10])
CCCC[C@@H]1NC(=O)[C@@H]2CSc3nnc(c4c3CCC3C(CC4)C3COC(=O)NCCOCCOCCNC(=O)CCOCCOCCOCCOCCOCCC(=O)NCCOCCOCCNC(=O)OCC3C4CCc5c6nnc(c5CCC43)SC[C@@H]3NC(=O)[C@H](CCCNC(=N)N)NC(=O)[C@H](CC(=O)O)NC(=O)[C@H](Cc4c[nH]c5ccccc45)NC(=O)[C@H](CCCNC(=N)N)NC(=O)[C@H](Cc4ccccc4)NC(=O)[C@H](Cc4cnc[nH]4)NC(=O)CNC(=O)[C@H](CCCC)NC(=O)[C@H](CS6)NC(=O)[C@H](CCCNC(=N)N)NC(=O)[C@H](Cc4c[nH]c5ccccc45)NC(=O)[C@H](CCCNC(=N)N)NC(=O)[C@H](Cc4ccccc4)NC(=O)[C@H](Cc4cnc[nH]4)NC3=O)SC[C@H](NC(=O)[C@H](CCCNC(=N)N)NC(=O)[C@H](CC(=O)O)NC(=O)[C@H](Cc3c[nH]c4ccccc34)NC(=O)[C@H](CCCNC(=N)N)NC(=O)[C@H](Cc3ccccc3)NC(=O)[C@H](Cc3cnc[nH]3)NC(=O)CNC1=O)C(=O)N[C@@H](Cc1cnc[nH]1)C(=O)N[C@@H](Cc1ccccc1)C(=O)N[C@@H](CCCNC(=N)N)C(=O)N[C@@H](Cc1c[nH]c3ccccc13)C(=O)N[C@@H](CCCNC(=N)N)C(=O)N2 (some centres not stated) | 0.417 nM | 10.2 nM | 33.1 nM | 25 | 79 | – | – | – | – | –
CCCC[C@@H]1NC(=O)[C@@H]2CSc3nnc(c4c3CCC3C(CC4)C3COC(=O)NCCOCCOCCOCCNC(=O)OCC3C4CCc5c6nnc(c5CCC43)SC[C@@H]3NC(=O)[C@H](CCCNC(=N)N)NC(=O)[C@H](CC(=O)O)NC(=O)[C@H](Cc4c[nH]c5ccccc45)NC(=O)[C@H](CCCNC(=N)N)NC(=O)[C@H](Cc4ccccc4)NC(=O)[C@H](Cc4cnc[nH]4)NC(=O)CNC(=O)[C@H](CCCC)NC(=O)[C@H](CS6)NC(=O)[C@H](CCCNC(=N)N)NC(=O)[C@H](Cc4c[nH]c5ccccc45)NC(=O)[C@H](CCCNC(=N)N)NC(=O)[C@H](Cc4ccccc4)NC(=O)[C@H](Cc4cnc[nH]4)NC3=O)SC[C@H](NC(=O)[C@H](CCCNC(=N)N)NC(=O)[C@H](CC(=O)O)NC(=O)[C@H](Cc3c[nH]c4ccccc34)NC(=O)[C@H](CCCNC(=N)N)NC(=O)[C@H](Cc3ccccc3)NC(=O)[C@H](Cc3cnc[nH]3)NC(=O)CNC1=O)C(=O)N[C@@H](Cc1cnc[nH]1)C(=O)N[C@@H](Cc1ccccc1)C(=O)N[C@@H](CCCNC(=N)N)C(=O)N[C@@H](Cc1c[nH]c3ccccc13)C(=O)N[C@@H](CCCNC(=N)N)C(=O)N2 (some centres not stated) | 2.24 nM | 37.2 nM | 91.2 nM | 17 | 41 | – | – | – | – | –
CC[C@H](C)[C@@H]1NC(=O)[C@@H]2CCCN2C(=O)[C@H](Cc2c[nH]c3ccccc23)NC(=O)[C@H](CCCNC(=N)N)N(C)C(=O)[C@H](Cc2ccccc2)NC(=O)[C@H](Cc2cnc[nH]2)NC(=O)[C@H]([C@@H](C)O)NC(=O)[C@@H](NC(C)=O)CSSC[C@@H](C(N)=O)NC1=O (Ac-CTHF[NMeR]WPIC-NH2; disulfide 1-9) | 195 nM | 3980 nM | 347 nM | 20 | 2 | 8.71 nM | 39.8 nM | 60.3 nM | 5 | 7
CCCC[C@@H]1NC(=O)[C@@H]2CSCc3cccc(c3)CSC[C@H](NC(=O)[C@H](CCCNC(=N)N)NC(=O)[C@H](CC(=O)O)NC(=O)[C@H](Cc3c[nH]c4ccccc34)NC(=O)[C@H](CCCNC(=N)N)NC(=O)[C@H](Cc3ccccc3)NC(=O)[C@H](Cc3cnc[nH]3)NC(=O)CNC1=O)C(=O)N[C@@H](Cc1cnc[nH]1)C(=O)N[C@@H](Cc1ccccc1)C(=O)N[C@@H](CCCNC(=N)N)C(=O)N[C@@H](Cc1c[nH]c3ccccc13)C(=O)N[C@@H](CCCNC(=N)N)C(=O)N2 (cyclo(CHFRWRC[Nle]GHFRWDR); linker 1-7 via mXylylene) | 0.407 nM | 13.5 nM | – | – | – | 0.0871 nM | 0.309 nM | – | – | –
CCCC[C@@H]1NC(=O)[C@@H]2CSCc3ccc(cc3)CSC[C@H](NC(=O)[C@H](CCCNC(=N)N)NC(=O)[C@H](CC(=O)O)NC(=O)[C@H](Cc3c[nH]c4ccccc34)NC(=O)[C@H](CCCNC(=N)N)NC(=O)[C@H](Cc3ccccc3)NC(=O)[C@H](Cc3cnc[nH]3)NC(=O)CNC1=O)C(=O)N[C@@H](Cc1cnc[nH]1)C(=O)N[C@@H](Cc1ccccc1)C(=O)N[C@@H](CCCNC(=N)N)C(=O)N[C@@H](Cc1c[nH]c3ccccc13)C(=O)N[C@@H](CCCNC(=N)N)C(=O)N2 (cyclo(CHFRWRC[Nle]GHFRWDR); linker 1-7 via pXylylene) | 0.245 nM | 13.8 nM | – | – | – | 0.0891 nM | 0.331 nM | – | – | –

Next, values leading:

Ki [1] | Ki (Melanocortin receptor 3 [2]) | Ki (Melanocortin receptor 4 [3]) | Ratio Ki (Homo sapiens [4]) | Ratio Ki (Homo sapiens [5]) | EC50 [6] | EC50 (Melanocortin receptor 3 [7]) | EC50 (Melanocortin receptor 4 [8]) | Ratio EC50 (Homo sapiens [9]) | Ratio EC50 (Homo sapiens [10]) | Compound
0.661 nM | 11.5 nM | 30.9 nM | 17 | 47 | – | – | – | – | – | CCCC[C@@H]1NC(=O)[C@@H]2CSc3nnc(c4c3CCC3C(CC4)C3COC(=O)NCCNC(=O)CCOCCOCCOCCOCCOCCC(=O)NCCNC(=O)OCC3C4CCc5c6nnc(c5CCC43)SC[C@@H]3NC(=O)[C@H](CCCNC(=N)N)NC(=O)[C@H](CC(=O)O)NC(=O)[C@H](Cc4c[nH]c5ccccc45)NC(=O)[C@H](CCCNC(=N)N)NC(=O)[C@H](Cc4ccccc4)NC(=O)[C@H](Cc4cnc[nH]4)NC(=O)CNC(=O)[C@H](CCCC)NC(=O)[C@H](CS6)NC(=O)[C@H](CCCNC(=N)N)NC(=O)[C@H](Cc4c[nH]c5ccccc45)NC(=O)[C@H](CCCNC(=N)N)NC(=O)[C@H](Cc4ccccc4)NC(=O)[C@H](Cc4cnc[nH]4)NC3=O)SC[C@H](NC(=O)[C@H](CCCNC(=N)N)NC(=O)[C@H](CC(=O)O)NC(=O)[C@H](Cc3c[nH]c4ccccc34)NC(=O)[C@H](CCCNC(=N)N)NC(=O)[C@H](Cc3ccccc3)NC(=O)[C@H](Cc3cnc[nH]3)NC(=O)CNC1=O)C(=O)N[C@@H](Cc1cnc[nH]1)C(=O)N[C@@H](Cc1ccccc1)C(=O)N[C@@H](CCCNC(=N)N)C(=O)N[C@@H](Cc1c[nH]c3ccccc13)C(=O)N[C@@H](CCCNC(=N)N)C(=O)N2 (some centres not stated)
0.389 nM | 5.5 nM | 30.9 nM | 14 | 79 | 0.0468 nM | 0.105 nM | 3.02 nM | 2 | 65 | CCCC[C@@H]1NC(=O)[C@@H]2CSC/C(=N/OCC(=O)NCCOCCOCCOCCN=[N+]=[N-])CSC[C@H](NC(=O)[C@H](CCCNC(=N)N)NC(=O)[C@H](CC(=O)O)NC(=O)[C@H](Cc3c[nH]c4ccccc34)NC(=O)[C@H](CCCNC(=N)N)NC(=O)[C@H](Cc3ccccc3)NC(=O)[C@H](Cc3cnc[nH]3)NC(=O)CNC1=O)C(=O)N[C@@H](Cc1cnc[nH]1)C(=O)N[C@@H](Cc1ccccc1)C(=O)N[C@@H](CCCNC(=N)N)C(=O)N[C@@H](Cc1c[nH]c3ccccc13)C(=O)N[C@@H](CCCNC(=N)N)C(=O)N2
< 0.0055 nM | 0.631 nM | 0.912 nM | 115 | 166 | – | – | – | – | – | CCCC[C@@H]1NC(=O)[C@@H]2CSc3nnc(c4c3CCC3C(CC4)C3COC(=O)NCCN)SC[C@H](NC(=O)[C@H](CCCNC(=N)N)NC(=O)[C@H](CC(=O)O)NC(=O)[C@H](Cc3c[nH]c4ccccc34)NC(=O)[C@H](CCCNC(=N)N)NC(=O)[C@H](Cc3ccccc3)NC(=O)[C@H](Cc3cnc[nH]3)NC(=O)CNC1=O)C(=O)N[C@@H](Cc1cnc[nH]1)C(=O)N[C@@H](Cc1ccccc1)C(=O)N[C@@H](CCCNC(=N)N)C(=O)N[C@@H](Cc1c[nH]c3ccccc13)C(=O)N[C@@H](CCCNC(=N)N)C(=O)N2 (some centres not stated) (cyclo(CHFRWRC[Nle]GHFRWDR); linker 1-7 via X8)
2.14 nM | 51.3 nM | 170 nM | 24 | 79 | – | – | – | – | – | CCCC[C@@H]1NC(=O)[C@@H]2CSc3nnc(c4c3CCC3C(CC4)C3COC(=O)NCCOCCOCCOCCNC(=O)OCC3C4CCc5nnn(CC(=O)N6CCCC[C@H]6C6(O)CN(C(=O)c7ccc(F)c(F)c7Nc7ccc(I)cc7F)C6)c5CCC43)SC[C@H](NC(=O)[C@H](CCCNC(=N)N)NC(=O)[C@H](CC(=O)O)NC(=O)[C@H](Cc3c[nH]c4ccccc34)NC(=O)[C@H](CCCNC(=N)N)NC(=O)[C@H](Cc3ccccc3)NC(=O)[C@H](Cc3cnc[nH]3)NC(=O)CNC1=O)C(=O)N[C@@H](Cc1cnc[nH]1)C(=O)N[C@@H](Cc1ccccc1)C(=O)N[C@@H](CCCNC(=N)N)C(=O)N[C@@H](Cc1c[nH]c3ccccc13)C(=O)N[C@@H](CCCNC(=N)N)C(=O)N2 (some centres not stated) (cyclo(CHFRWRC[Nle]GHFRWDR); linker 1-7 via X9)
1.58 nM | 26.3 nM | – | – | – | 0.195 nM | 0.347 nM | – | – | – | CCCC[C@@H]1NC(=O)[C@@H]2CSCc3ccccc3CSC[C@H](NC(=O)[C@H](CCCNC(=N)N)NC(=O)[C@H](CC(=O)O)NC(=O)[C@H](Cc3c[nH]c4ccccc34)NC(=O)[C@H](CCCNC(=N)N)NC(=O)[C@H](Cc3ccccc3)NC(=O)[C@H](Cc3cnc[nH]3)NC(=O)CNC1=O)C(=O)N[C@@H](Cc1cnc[nH]1)C(=O)N[C@@H](Cc1ccccc1)C(=O)N[C@@H](CCCNC(=N)N)C(=O)N[C@@H](Cc1c[nH]c3ccccc13)C(=O)N[C@@H](CCCNC(=N)N)C(=O)N2 (cyclo(CHFRWRC[Nle]GHFRWDR); linker 1-7 via oXylylene)
